Structures are written as SMILES. pIC50: −log10 of the molar value.

By pIC50 is commonly meant the negative decadic logarithm of the IC50, by convention in mol/L.

This assay in a line: Reversal of multidrug resistance in human MCF7-DOX cells measured for 48 hrs by MTT assay. It is filed as functional, cell-based. (In general: Formazan colour is commonly taken as a measure of viable cells.)
As to `C/C=C(\C)C(=O)O[C@H]1[C@@H](OC(C)=O)[C@H](OC(C)=O)[C@H](OC(=O)/C(C)=C/C)[C@@H](OC(=O)/C(=C/C)CO)[C@@H]1OC(=O)/C(=C/C)CO`, the pIC50 was 5.47. In the case of `C/C=C(\C)C(=O)O[C@H]1[C@H](OC(=O)/C(C)=C/C)[C@@H](OC(=O)/C(C)=C/C)[C@@H](O)[C@H](O)[C@@H]1OC(=O)/C(C)=C/C` it was 5.40; in that of `C/C=C(\C)C(=O)O[C@@H]1[C@H](O)[C@@H](OC(=O)/C(C)=C/C)[C@H](OC(=O)/C(C)=C/C)[C@@H](OC(=O)/C(C)=C/C)[C@H]1O`, 5.19.

Turning to `COc1cccc2c1C(=O)c1c(O)c3c(c(O)c1C2=O)C[C@@](O)(C(=O)CO)C[C@@H]3O[C@H]1C[C@H](N)[C@H](O)[C@H](C)O1` [DOXORUBICIN], the pIC50 was 4.65. Next, `COc1ccc(CCN(C)CCCC(C#N)(c2ccc(OC)c(OC)c2)C(C)C)cc1OC` (stereo not given) [VERAPAMIL]: 5.68.

The record behind these values is ChEMBL document CHEMBL5257077, “d-chiro-Inositol Derivatives with Multidrug Resistance Reversal Activities from the Fruits of Chisocheton siamensis” (J Nat Prod, 2023).
